Experimental data: US20230398194A1 (priority 2016, published 2023)

B1: P2A: carbapenemase, beta-lactamase polypeptide of SEQ ID NO: 6 (protein)
chain: ETGTISISQLNKNVWVHTELGYFNGEAVPSNGLVLNTSKGLVLVDSSWDNKLTKELIEMVEKKFQKRVTDVIITHAHADRIGGITALKERGIKAHSTALTAELAKNSGYEEPLGDLQTITSLKFGNTKVETFYPGKGHTEDNIVVWLPQYQILAGGCLVKSAEAKDLGNVADAYVNEWSTSIENVLKRYGNINSVVPGHGEVGDKGLLLHTLDLLK

How the values were obtained:
canine gut microbiome = experiment: Canine fecal resistome analysis, oral amoxicillin with or without SYN-004; type: in vivo, dog; details: for abundance of antibiotic resistance genes in the canine gut microbiome (overall conclusion): oral amoxicillin exposure alone vs with SYN-004; for change in the mean of relative gene frequencies of selected resistance genes (FIG. 9): amoxicillin alone vs amoxicillin+SYN-004
Protocol: To determine if SYN-004 affected the abundance of antibiotic resistance genes, resistome analyses were performed.
Several genes were selected for further analysis. For each selected gene, the change in the mean of relative gene frequencies from pretreatment to post treatment was compared in the amoxicillin alone or the amoxicillin+SYN-004 cohorts (FIG. 9).

fecal microbiomes = details: for effect on microbiota populations in the GI tract (conclusion): oral amoxicillin alone vs with SYN-004; for position of post treatment fecal microbiomes in Principal Coordinate Analysis (Bray-Curtis, FIG. 7): post treatment vs pretreatment cluster, amoxicillin alone vs amoxicillin+SYN-004, 5 dogs per cohort
Protocol: The ability of a delayed-release formulation of SYN-004 (ribaxamase), to mitigate the propagation of antibiotic resistance genes caused by exposure of the gut microbiota to oral amoxicillin was evaluated in normal, seven month old female beagles. Animals were acclimated for 24 days prior to dosing initiation. Animals (n=10, 5 animals per cohort) received oral amoxicillin (40 mg/kg/dose, reconstituted in apple juice) three times a day+/−one capsule of SYN-004 (10 mg) for 5 days, with the last dose on the morning of day 6. The animals received 16 total doses of amoxicillin+/−SYN-004. Fecal samples were collected prior to antibiotic dosing and after the last dose. Blood was collected after the first antibiotic dose on day 1 and after the last dose on day 6. On each blood collection day, blood was collected from each animal at seven time points, 0.5, 1, 2, 3, 4, 6, and 8 hrs. Amoxicillin serum levels were measured using a validated liquid chromatography (LC) method with tandem mass spectrometry detection (LC/MS/MS). DNA isolated from fecal samples was subjected to whole genome shotgun sequencing and metagenomics analyses.
DNA isolated from the fecal samples was subjected to whole genome sequencing and analyzed using the CosmosID, Inc. bioinformatics software package. Analyses included identification of the microbiota species present in the fecal microbiomes and identification of antibiotic-resistance genes based on the percentage gene coverage for each gene and quantified by determining the frequency (%) of each gene in each sample.
To determine if SYN-004 protected the fecal microbiomes from damage caused by oral amoxicillin, the microbiome bacterial populations were compared using a three coordinate Principal Coordinate Analysis (CosmosID, Inc. bioinformatics software). Distance between points indicates degree of difference in sample diversity with points close together more similar.

porcine gut microbiome = experiment: Piglet gut microbiome study: fecal resistome by whole genome shotgun metagenomics, ceftriaxone with or without SYN-004 (ribaxamase); type: in vivo, pig; details: for blaOXA genes (extended spectrum OXA class D beta-lactamases), level in fecal microbiome / change in the mean of relative gene frequencies of acrE, baeR, emrY, mdtD, mdtN, pbp2, pbp4, AmpC (FIG. 3) / mdtD gene levels / AmpC gene frequencies / Aminoglycoside_strA gene level (FIG. 4A) / Tetracycline_tet39 gene level (FIG. 4B): CRO alone vs CRO+ribaxamase; for blaOXA genes (extended spectrum OXA class D beta-lactamases), level in fecal microbiome: 5 piglets per cohort; for AmpC gene frequencies: by Day 4, after an increase from Day −7 to Day −4 in both cohorts; for abundance of antibiotic resistance genes in the porcine gut microbiome (overall conclusion): ceftriaxone treatment alone vs with SYN-004 (ribaxamase); for Aminoglycoside_strA gene level (FIG. 4A) / Tetracycline_tet39 gene level (FIG. 4B): day 4 after antibiotic treatment, 5 animals per cohort
Protocol: See Table 2 and FIG. 1 for study design and timeline. Animals were acclimated for 14 days prior to study initiation. Ceftriaxone (CRO) was administered daily for 7 days and animals that received SYN-004 (ribaxamase) starting the day before antibiotic treatment for 9 consecutive days. Feces were collected on Study Days −7, −4, 4, and 8. Fecal DNA was isolated and subjected to whole genome shotgun metagenomics analyses. The community resistome, the collection of antibiotic resistance genes in the microbiome, was identified by comparison to a curated antibiotic resistance gene database.
Two groups of 5 normal piglets each were used in this study. Group 1 animals were treated with ceftriaxone (IV, 1× per day, 50 mg/kg) for 7 consecutive days and Group 2 animals received ceftriaxone (IV, 1× per day, 50 mg/kg) for 7 consecutive days and SYN-004 (ribaxamase, orally, 4× per day, 75 mg/dose) for 9 consecutive days starting the day before ceftriaxone delivery.
Normal piglets (2 months old, approximately 50 lbs) were acclimated for 14 days prior to study initiation. Two cohorts of 5 animals each were used for this study, Group 1 received ceftriaxone alone and Group 2 received ceftriaxone and SYN-004 (ribaxamase), as indicated in Table 2. Stool was collected at 4 time points, two prior to treatment, at Study Days −7 and −4, and two during treatment at Study Day 4 and 8.
Total DNA was isolated from fecal specimens, using the MOBIO Power-Soil® DNA Isolation Kit (Qiagen, Germantown, MD), following the manufacturer's instructions. Each DNA sample was normalized in 3-18 uL of nuclease-free water for a final concentration of 0.5 ng/uL using the Biomek FX liquid handler (Beckman Coulter Life Sciences, Brea, CA). Libraries were constructed using the Nextera XT Library Prep Kit (illumine, San Diego, CA). For each sample, an input of 0.5 ng was used in the tagmentation reaction, followed by 13 cycles of PCR amplification using Nextera i7 and i5 index primers and 2× KAPA master mix per the modified Nextera XT protocol. The PCR products were purified using 1.0× speed beads and eluted in 15 ul of nuclease-free water. The final libraries were quantified by PicoGreen fluorometric assay (100× final dilution) and the concentrations were in the range of 0.1-4.0 ng/ul. The libraries were pooled, based on concentration determined by PicoGreen and loaded onto a high sensitivity (HS) chip run on the Caliper LabChipGX (Perkin Elmer, Waltham, MA). The base pair size reported was in the range of 301-680 bp. Each pool of 64 was run across 8 lanes of an Illumina HiSeq v3 flowcell, targeting 100 bp paired end reads per sample.
Briefly, raw, unassembled shotgun sequence reads were probed against the CosmosID, Inc. curated antibiotic resistance gene database.

[1] = Amoxicillin serum levels (LC/MS/MS) in dogs given oral amoxicillin with or without SYN-004; type: in vivo, dog; details: for amoxicillin serum levels (area under the curve), amoxicillin alone vs amoxicillin+SYN-004: amoxicillin 40 mg/kg/dose oral TID +/- SYN-004 10 mg capsule
Protocol: Amoxicillin serum levels were plotted for each group for each blood collection day as mean+standard deviation for each time point. Area under the curve was calculated for each group for each bleed day (day 1 and day 6) and were compared statistically using one-way ANOVA with Dunnett's multiple comparison tests (Graph Pad Prism 7.03 software).

[2] = ertapenem 30 mg/kg IV once a day; P2A 50 mg PO 4 times a day; expected result
Protocol: Animals (n=16, 8 animals per cohort) receive ertapenem (30 mg/kg/dose, IV, once a day for 4 days)+/−one capsule of P2A (50 mg, PO, 4 times a day). The P2A is started the day before antibiotic treatment and continues with one final dose the morning of day 5. […] Blood is collected on day 3 after 3 ertapenem doses. Blood is collected at 3 timepoints, 1 hr, 2 hrs, and 3 hrs after ertapenem.

Molecule	abundance of antibiotic resistance genes in the canine gut microbiome (overall conclusion) (canine gut microbiome)	change in the mean of relative gene frequencies of selected resistance genes (FIG. 9) (canine gut microbiome; pretreatment to post treatment)	effect on microbiota populations in the GI tract (conclusion) (fecal microbiomes)	position of post treatment fecal microbiomes in Principal Coordinate Analysis (Bray-Curtis, FIG. 7) (fecal microbiomes)	blaOXA genes (extended spectrum OXA class D beta-lactamases), level in fecal microbiome (porcine gut microbiome; Day 4)	change in the mean of relative gene frequencies of acrE, baeR, emrY, mdtD, mdtN, pbp2, pbp4, AmpC (FIG. 3) (porcine gut microbiome; Day −4 to Day 4)	mdtD gene levels (porcine gut microbiome; Day −4 to Day 4)	AmpC gene frequencies (porcine gut microbiome)	abundance of antibiotic resistance genes in the porcine gut microbiome (overall conclusion) (porcine gut microbiome)	Aminoglycoside_strA gene level (FIG. 4A) (porcine gut microbiome)	Tetracycline_tet39 gene level (FIG. 4B) (porcine gut microbiome)	also measured
CC1(C)S[C@@H]2[C@H](NC(=O)[C@H](N)c3ccc(O)cc3)C(=O)N2[C@H]1C(=O)O [amoxicillin]	increased the abundance of antibiotic resistance genes	increased for each gene	disrupts the microbiota populations in the GI tract	4/5 post treatment samples were plotted far from the pretreatment cluster	–	–	–	–	–	–	–	abundance of antibiotic resistance genes, pretreatment to post treatment (canine gut microbiome; amoxicillin alone compared to amoxicillin+SYN-004 cohort): higher abundance of antibiotic resistance genes post treatment; TEM and OXA beta-lactamase genes (e.g. TEM-113, OXA-136, FIG. 8), detection (canine gut microbiome; not detected prior to amoxicillin exposure): detected only at day 6 in the amoxicillin alone cohort; marA gene levels (canine gut microbiome; pretreatment to post treatment, amoxicillin alone): almost doubled
CO/N=C(\C(=O)N[C@@H]1C(=O)N2C(C(=O)O)=C(CSc3nc(=O)c(=O)[nH]n3C)CS[C@H]12)c1csc(N)n1 [Ceftriaxone, reference compound]	–	–	–	–	present at high levels in two of five CRO animals	increased for each gene	doubled	continued to increase	increased the abundance of antibiotic resistance genes	detected at high levels in 4 of 5 animals	detected at high levels in 4 of 5 animals	blaCTX-M_82 or blaCFX_A4 genes (class A serine beta-lactamases), level in fecal microbiome (porcine gut microbiome; Day 4, CRO alone): detected at Day 4 at high levels in two of the CRO animals; abundance of antibiotic resistance genes in the fecal microbiome (heatmaps, FIG. 2A, 2B) (porcine gut microbiome; post-treatment Day 4, CRO 50 mg/kg IV 1x per day alone vs CRO+ribaxamase 75 mg oral QID): higher abundance of antibiotic resistance genes
SYN-004: beta-lactamase with the amino acid sequence of SEQ ID NO: 1; D276N mutant of P1A	attenuated this enrichment process	decreased for each gene	can mitigate the damage caused by oral amoxicillin	also clustered with the pretreatment samples	absent or observed at lower frequencies	decreased for each gene in the CRO+ribaxamase group except for pbp2	reduced	decreased to levels similar to the Day −7 frequencies	attenuated this enrichment process	remained low or absent in all animals	only one animal in the CRO+ribaxamase cohort was identified with a high level	pbp2 relative gene frequency change (porcine gut microbiome; Day −4 to Day 4, CRO+ribaxamase): increased only slightly above baseline; antibiotic resistance gene frequencies in the presence of ribaxamase (porcine gut microbiome; with ceftriaxone, vs pre-antibiotic treatment levels): reduced or maintained at pre-antibiotic treatment levels; amoxicillin serum levels (area under the curve), amoxicillin alone vs amoxicillin+SYN-004 ([1]; day 1, p=0.703): not significantly different; amoxicillin serum levels (area under the curve), amoxicillin alone vs amoxicillin+SYN-004 ([1]; day 6, p=0.098): not significantly different; interference with amoxicillin systemic absorption from the gastrointestinal tract ([1]; delayed release SYN-004 formulation, dog): did not interfere; marA gene levels, reduction (canine gut microbiome; pretreatment to post treatment, amoxicillin+SYN-004 cohort): approximately 50%; antibiotic resistance gene frequencies in the presence of SYN-004 (canine gut microbiome; with oral amoxicillin): reduced
B1	–	–	–	–	–	–	–	–	–	–	–	ertapenem serum levels, ertapenem alone vs ertapenem+P2A [2]: not expected to be different
